Test system: potato tubers
Assay: Sprouting-inhibiting treatment of potato tubers by thermal fogging
Assay type: in vivo
Settings: after 5 months; cold room 8 to 9° C.; 45 g/tonne then 15 g/tonne every 20 days by thermal fogging
Procedure: The effectiveness of eugenol and of isoeugenol in the sprouting-inhibiting treatment of potato tubers was evaluated and compared with that of other terpenes.
The following compositions were used in the case of eucalyptol, eugenol, isoeugenol, limonene, safrole and terpineol:
60% by weight of terpene;
7% by weight of a nonionic emulsifier;
33% by weight of butyl acetate.
In the case of L-carvone, the following composition was employed:
30% by weight of L-carvone;
10% by weight of ethanol;
5% by weight of nonionic emulsifier;
35% by weight of propylene glycol.
Isopropyl chlorophenylcarbamate (CIPC) is a compound used in the art as sprouting inhibitor for potato tubers. Its activity was compared with that of eugenol and of isoeugenol.
The composition based on isopropyl chloro-phenylcarbamate has the following formulation: […]
20% by weight of isopropyl chlorophenyl-carbamate;
50% by weight of propylene glycol;
10% by weight of nonionic emulsifier;
Each of the compositions tested was applied by thermal fogging. The temperature at the outlet of the thermal fogging device was 240° C., except in the case of the compositions based on L-carvone and on CIPC, where it was 180° C.
The amount of composition which has to be applied is calculated in each case so as to obtain an equivalent concentration of active material on the potato tubers.
In this example, repeated applications were carried out by following the following protocol:
45 g/tonne of tubers at the beginning of storage;
15 g/tonne of tubers every 20 days; so that, after 6 months, 165 g of active principle have been applied per tonne of tubers.
During storage, the tubers were stored in a cold room at a temperature of 8 to 9° C.

Compound	Loss in weight of the tubers	Total weight of the sprouts >2 mm	Tubers at the white point stage	Tubers with sprouts 2 to 5 mm	Tubers with sprouts <2 mm	Tubers with sprouts >2 mm	Tubers with sprouts >5 mm	Unsprouted tubers
C=C(C)[C@H]1CC=C(C)CC1 [LIMONENE, limonene]	4.5%	283.8 g	1.2%	8.7%	1.5%	96.8%	88.1%	0.5%
L-carvone	3.3%	42.0 g	8.7%	28.8%	32.3%	55.0%	26.2%	4.0%
